The source of these data is ChEMBL document CHEMBL1201862, “PubChem BioAssay data set” (2004).

Some test systems named below: HOP-62; K562; MOLT-4; NCI-H226; OVCAR-3; OVCAR-5; RPMI-8226; SF-539; SK-MEL-2; SNB-75; SW-620; U-251; UACC-257; EKVX; SNB-19.
What all share (experiment): growth of human tumour cells (NCI), 48 h

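1) Cells in 96-well plates. 2) Compound, 48 h, 5 concentrations. 3) Linear interpolation between surrounding doses. 4) Unreached endpoint = highest concentration. At the GI50, growth is halved.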 Calls of active or inactive are those of the source. Cut-off read from the data, not from the text of the source: active = GI50 up to about 1.1 µM and inactive = higher.

For the molecule `CCOC(=O)N[C@@H]1C(CC(=O)OC)O[C@H]2OC(C)(C)O[C@H]21` (some centres not stated), the GI50 in the experiment with HOP-62, in the experiment with K562, in the experiment with MOLT-4, in the experiment with NCI-H226, in the experiment with OVCAR-3 and in the experiment on OVCAR-5 was > 100 µM (inactive) in each case. For the same molecule, the GI50 in the experiment on RPMI-8226, in the experiment on SF-539, in the experiment with SK-MEL-2, with SNB-75, with SW-620 and with U-251 was > 100 µM (inactive) each time. In addition, the GI50 in the experiment on UACC-257 was > 100 µM (inactive).
`Cc1cc2c(=O)c3ccc(Cl)cc3[nH]c2c(C(N)=O)c1C`: the GI50 in the experiment with EKVX was > 100 µM (inactive); with HOP-62 it was > 100 µM (inactive); in the experiment on K562, 83.2 µM (inactive); with MOLT-4 it was > 100 µM (inactive); with OVCAR-3 it was > 100 µM (inactive); in the experiment with OVCAR-5, > 100 µM (inactive). Also, the GI50 was > 100 µM (inactive) in the experiment on RPMI-8226; > 100 µM (inactive) in the experiment with SF-539; > 100 µM (inactive) in the experiment with SK-MEL-2; > 100 µM (inactive) with SNB-19; 35.5 µM (inactive) in the experiment with SNB-75; > 100 µM (inactive) in the experiment on SW-620. Further, the GI50 with U-251 and with UACC-257 was > 100 µM (inactive) in each case.
As for `NC(CCSC(F)F)C(=O)O` (configuration not stated), the GI50 in the experiment on EKVX, in the experiment with HOP-62, in the experiment with K562, in the experiment with MOLT-4, in the experiment on NCI-H226 and with OVCAR-3 was > 100 µM (inactive) in each case. The GI50 with OVCAR-5, with SF-539, in the experiment with SK-MEL-2, in the experiment with SNB-19, in the experiment on SNB-75 and in the experiment on SW-620 was > 100 µM (inactive) each time. In addition, the GI50 in the experiment with U-251 is > 100 µM (inactive).
As to `COC(=O)/C(C#N)=C(\N)C(Cl)(Cl)Cl`, the GI50 was 4.68 µM (inactive) with EKVX; 16.1 µM (inactive) in the experiment with HOP-62; 0.442 µM (active) in the experiment with K562; 0.379 µM (active) in the experiment with MOLT-4; 3.3 µM (inactive) in the experiment with OVCAR-3; 1.57 µM (inactive) in the experiment with RPMI-8226. The GI50 in the experiment with SK-MEL-2 was 5.53 µM (inactive); with SNB-19 it was 40.8 µM (inactive); in the experiment with SNB-75, 3.85 µM (inactive); in the experiment with SW-620, 0.456 µM (active); in the experiment on U-251 it was 16.5 µM (inactive); in the experiment on UACC-257 it was 3.08 µM (inactive).
As for `Cc1c(N2CCOCC2)nc2ccc(Cl)cc2c1-c1ccccc1`, the GI50 in the experiment on EKVX was 91.8 µM (inactive); in the experiment on HOP-62, > 100 µM (inactive); in the experiment on K562, 31.6 µM (inactive); with MOLT-4, 21.8 µM (inactive); in the experiment with OVCAR-3, 64.7 µM (inactive); in the experiment on RPMI-8226, 46.9 µM (inactive). The GI50 in the experiment on SF-539 was 61.9 µM (inactive); in the experiment with SK-MEL-2 it was > 100 µM (inactive); in the experiment on SNB-19 it was > 100 µM (inactive); in the experiment with SNB-75, 31.4 µM (inactive); in the experiment with SW-620, 66.2 µM (inactive); in the experiment with U-251 it was 89.9 µM (inactive). Besides, the GI50 in the experiment with UACC-257 was > 100 µM (inactive).
Turning to `Cc1c(C(=O)CSc2nc3cc([N+](=O)[O-])ccc3[nH]2)c(=O)n(-c2ccccc2)n1C`, the GI50 in the experiment with HOP-62 was > 100 µM (inactive); with MOLT-4, > 100 µM (inactive); in the experiment on NCI-H226 it was > 100 µM (inactive); with OVCAR-3 it was 71.8 µM (inactive); with OVCAR-5 it was > 100 µM (inactive); in the experiment on RPMI-8226, > 100 µM (inactive). Also, the GI50 with SF-539, in the experiment on SK-MEL-2, in the experiment on SNB-19, with SNB-75, in the experiment with SW-620 and in the experiment on U-251 was > 100 µM (inactive) throughout. Further, the GI50 in the experiment on UACC-257 was > 100 µM (inactive).
`O=C1CC2(C[C@@H]3CCCCCCCCC[C@@H](C3)C2)N1` (some centres not stated): the GI50 is 14.4 µM (inactive) in the experiment with EKVX; 17.1 µM (inactive) with HOP-62; 20.8 µM (inactive) in the experiment on K562; 12.4 µM (inactive) in the experiment on MOLT-4; 14.3 µM (inactive) in the experiment on NCI-H226; 15.4 µM (inactive) with OVCAR-5. Also, the GI50 in the experiment with RPMI-8226 is 13.7 µM (inactive); in the experiment with SF-539, 15.8 µM (inactive); in the experiment on SK-MEL-2, 19.8 µM (inactive); in the experiment on SNB-19, 20 µM (inactive); in the experiment on SNB-75 it was 6.71 µM (inactive); in the experiment with SW-620 it was 18.7 µM (inactive). The GI50 in the experiment with U-251 is 16.6 µM (inactive); in the experiment on UACC-257, 12.2 µM (inactive).
Regarding `O=C(CC1C(=O)Nc2ccccc2S1(=O)=O)Nc1cccc(Cl)c1` (configuration not stated), the GI50 in the experiment on EKVX was 17.2 µM (inactive); in the experiment with K562, 17.8 µM (inactive); with MOLT-4, 11.9 µM (inactive); with NCI-H226, 17.3 µM (inactive); in the experiment on OVCAR-3, 15.6 µM (inactive); in the experiment with OVCAR-5, 23.2 µM (inactive). For the same molecule, the GI50 was 3.93 µM (inactive) in the experiment with RPMI-8226; 10.7 µM (inactive) in the experiment with SF-539; 27.1 µM (inactive) in the experiment on SK-MEL-2; 19.4 µM (inactive) in the experiment with SNB-19; 16.8 µM (inactive) in the experiment with SNB-75; 17.7 µM (inactive) in the experiment on SW-620. For the same molecule, the results for the GI50 in the experiment on U-251 and in the experiment with UACC-257 were 13.6 µM (inactive) and 19.8 µM (inactive), respectively.
As for `CCCN1CN(C(C(=O)N[C@@H]2C(=O)N3C2SC(C)(C)C3C(=O)O)c2ccccc2)CSC1=S` (some centres not stated), the GI50 was > 100 µM (inactive) in the experiment on EKVX; > 100 µM (inactive) with HOP-62; 41.6 µM (inactive) with K562; > 100 µM (inactive) with MOLT-4; 32.2 µM (inactive) in the experiment with OVCAR-3; > 100 µM (inactive) in the experiment with OVCAR-5. Moreover, the GI50 is 53.6 µM (inactive) in the experiment with RPMI-8226; > 100 µM (inactive) with SF-539; > 100 µM (inactive) in the experiment on SK-MEL-2; > 100 µM (inactive) in the experiment with SNB-19; > 100 µM (inactive) with SNB-75; 16.4 µM (inactive) in the experiment with SW-620. Further, the GI50 in the experiment with U-251 and in the experiment with UACC-257 was > 100 µM (inactive) in each case.
Regarding `CCCOP1(=O)C=CC(Cl)=C(C)C1` (configuration not stated), the GI50 in the experiment with EKVX is > 51.5 µM (inactive); in the experiment on HOP-62 it was > 100 µM (inactive); in the experiment on K562, 12 µM (inactive); in the experiment with MOLT-4, 10.9 µM (inactive); in the experiment on OVCAR-3, 27.4 µM (inactive); in the experiment on OVCAR-5 it was 20.7 µM (inactive). For the same molecule, the GI50 in the experiment with RPMI-8226 is 22.3 µM (inactive); in the experiment on SF-539 it was > 46 µM (inactive); with SK-MEL-2, 23.9 µM (inactive); with SNB-19, > 70 µM (inactive); in the experiment on SNB-75, 55.8 µM (inactive); with SW-620, 19.3 µM (inactive). Also, the GI50 in the experiment on U-251 is 40.1 µM (inactive); in the experiment on UACC-257 it was 26.9 µM (inactive).
Consider `CCOc1ccc(/C=C/C(=O)c2sc(NNC(C)=O)nc2C)cc1`, for which the GI50 in the experiment with EKVX is 85.1 µM (inactive); with HOP-62, > 100 µM (inactive); with K562, > 100 µM (inactive); in the experiment with MOLT-4, > 100 µM (inactive); with OVCAR-3, > 100 µM (inactive); in the experiment on OVCAR-5, > 100 µM (inactive). For the same molecule, the GI50 in the experiment on RPMI-8226, with SF-539, with SK-MEL-2, in the experiment with SNB-19, with SNB-75 and in the experiment with SW-620 was > 100 µM (inactive) throughout. The GI50 with U-251 and with UACC-257 was > 100 µM (inactive) each time.
As for `COc1nc2nccc-2c2occn12`, the GI50 in the experiment with EKVX, in the experiment with HOP-62, with K562, in the experiment on MOLT-4, with OVCAR-3 and in the experiment with OVCAR-5 was > 100 µM (inactive) throughout. Further, the GI50 with RPMI-8226, in the experiment on SF-539, with SK-MEL-2, with SNB-19, in the experiment on SNB-75 and with SW-620 was > 100 µM (inactive) each time. Further, the GI50 with U-251 and in the experiment with UACC-257 was > 100 µM (inactive) throughout.
As for `NC(CCc1ncc(-c2ccccc2)s1)C(=O)O` (configuration not stated), the GI50 with EKVX was > 100 µM (inactive); with K562, > 100 µM (inactive); in the experiment on MOLT-4, > 100 µM (inactive); in the experiment with NCI-H226, 17.4 µM (inactive); in the experiment on OVCAR-3, > 100 µM (inactive); with RPMI-8226, > 100 µM (inactive). Also, the GI50 in the experiment on SF-539 was > 100 µM (inactive); with SNB-19, > 100 µM (inactive); in the experiment on SNB-75, 85.9 µM (inactive); in the experiment on SW-620, > 100 µM (inactive); in the experiment on U-251 it was > 100 µM (inactive); in the experiment on UACC-257, > 100 µM (inactive).
Turning to `NC(=O)C(=Cc1ccc(CP(=O)(O)O)cc1)C(N)=O`, the GI50 with EKVX, in the experiment with HOP-62, in the experiment on K562, with MOLT-4, in the experiment on OVCAR-3 and in the experiment with OVCAR-5 was > 100 µM (inactive) each time. The GI50 in the experiment with RPMI-8226, with SF-539, in the experiment with SK-MEL-2, in the experiment with SNB-19, in the experiment on SNB-75 and in the experiment on SW-620 was > 100 µM (inactive) each time. Further, the GI50 with U-251 and in the experiment with UACC-257 was > 100 µM (inactive) each time.
In the case of `O=C(O)CCSC(=O)Nc1ccc(/N=N/c2ccccc2)cc1`, the GI50 with EKVX is 74 µM (inactive); in the experiment on HOP-62, > 100 µM (inactive); in the experiment on K562 it was 80.5 µM (inactive); in the experiment on MOLT-4 it was 30.2 µM (inactive); in the experiment on NCI-H226, > 100 µM (inactive); in the experiment on OVCAR-3, > 100 µM (inactive). The GI50 with OVCAR-5, in the experiment with RPMI-8226, in the experiment with SF-539, in the experiment on SNB-19, in the experiment with SNB-75 and in the experiment on SW-620 was > 100 µM (inactive) in each case. Moreover, the GI50 was 64.6 µM (inactive) with U-251 and > 100 µM (inactive) in the experiment on UACC-257.
